Results published in patent US6656952B2, “Cis-substituted fluoromethylpyrrolidine derivative” (Daiichi Pharmaceutical Co., Ltd., priority 1997, dated 2003).
Values after ≈ are worked out from the molar mass of the structure shown.

Legend:
mouse peripheral blood = assay: Mouse peripheral blood micronucleus test; assay type: in vivo
S. epidermidis, 56500 = assay: Antibacterial activity (MIC), standard method of the Japan Society of Chemotherapy; assay type: cell-based; details: Staphylococcus epidermidis, read-out: Antibacterial activity (minimum inhibitory concentration)
Procedure: (§1) Examples of the present invention are given below by way of illustration and not by way of limitation. The antibacterial activity of each compound of interest was measured in accordance with the standard method specified by the Japan Society of Chemotherapy, with the results shown in Table 1 as MIC values (μg/ml).

[1] = system: Str. faecalis, ATCC-19433; assay: as above; assay type: cell-based; details: Enterococcus faecalis, ATCC19433, read-out: Antibacterial activity (minimum inhibitory concentration)
Procedure: as §1

Str. pyogenes, G-36 = assay: as above; assay type: cell-based; details: Streptococcus pyogenes, G36, read-out: Antibacterial activity (minimum inhibitory concentration)
Procedure: as §1

S. aureus, 209P = assay: as above; assay type: cell-based; details: Staphylococcus aureus, read-out: Antibacterial activity (minimum inhibitory concentration)
Procedure: as §1

E. coli, NIHJ = assay: as above; assay type: cell-based; details: Escherichia coli, read-out: Antibacterial activity (minimum inhibitory concentration)
Procedure: as §1

S. flexneli, 2A 5503 = assay: as above; assay type: cell-based; details: read-out: Antibacterial activity (minimum inhibitory concentration)
Procedure: as §1

Ser. marcescens, 10100 = assay: as above; assay type: cell-based; details: Serratia marcescens, read-out: Antibacterial activity (minimum inhibitory concentration)
Procedure: as §1

Ps. aeruginosa, 32104 = assay: as above; assay type: cell-based; details: Pseudomonas aeruginosa, read-out: Antibacterial activity (minimum inhibitory concentration)
Procedure: as §1

Pr. mirabilis, IFO- 3849 = assay: as above; assay type: cell-based; details: Proteus mirabilis, IFO3849, read-out: Antibacterial activity (minimum inhibitory concentration)
Procedure: as §1

X. maltophilia, IID 1275 = assay: as above; assay type: cell-based; details: Stenotrophomonas maltophilia, IID1275, read-out: Antibacterial activity (minimum inhibitory concentration)
Procedure: as §1

Pr. vulgaris, 08601 = assay: as above; assay type: cell-based; details: Proteus vulgaris, read-out: Antibacterial activity (minimum inhibitory concentration)
Procedure: as §1

Ps. aeruginosa, 32121 = assay: as above; assay type: cell-based; details: Pseudomonas aeruginosa, read-out: Antibacterial activity (minimum inhibitory concentration)
Procedure: as §1

S. aureus, 870307 = assay: as above; assay type: cell-based; details: Staphylococcus aureus, read-out: Antibacterial activity (minimum inhibitory concentration)
Procedure: as §1

| Compound | micronucleus test (micronucleus inducing action) (mouse peripheral blood) | MIC (S. epidermidis, 56500) | MIC [1] | MIC (Str. pyogenes, G-36) | MIC (S. aureus, 209P) | MIC (E. coli, NIHJ) | MIC (S. flexneli, 2A 5503) | MIC (Ser. marcescens, 10100) | MIC (Ps. aeruginosa, 32104) | MIC (Pr. mirabilis, IFO- 3849) | MIC (X. maltophilia, IID 1275) | MIC (Pr. vulgaris, 08601) | MIC (Ps. aeruginosa, 32121) | MIC (S. aureus, 870307) |
| --- | --- | --- | --- | --- | --- | --- | --- | --- | --- | --- | --- | --- | --- | --- |
| COc1c(N2C[C@@H](N)[C@@H](C)C2)c(F)cc2c(=O)c(C(=O)O)cn(C3CC3)c12 [formula (VI)] | positive |  |  |  |  |  |  |  |  |  |  |  |  |  |
| COc1c(N2C[C@H](CF)[C@H](N)C2)c(F)cc2c(=O)c(C(=O)O)cn([C@@H]3C[C@@H]3F)c12 [Ex. 1, 7-[3-(S)-Amino-4-(S)-fluoromethyl-1-pyrrolidinyl]-6-fluoro-1-[2-(S)-fluoro-1-(R)-cyclopropyl]-1,4-dihydro-8-methoxy-4-oxoquinoline-3-carboxylic acid] |  | 0.05 µg/mL (≈ 0.122 µM) | 0.1 µg/mL (≈ 0.243 µM) | 0.1 µg/mL (≈ 0.243 µM) | 0.013 µg/mL (≈ 0.0316 µM) | ≤ 0.003 µg/mL | 0.006 µg/mL (≈ 0.0146 µM) | 0.05 µg/mL (≈ 0.122 µM) | 0.2 µg/mL (≈ 0.486 µM) | 0.025 µg/mL (≈ 0.0608 µM) | 0.2 µg/mL (≈ 0.486 µM) | 0.013 µg/mL (≈ 0.0316 µM) | 0.05 µg/mL (≈ 0.122 µM) | 0.2 µg/mL (≈ 0.486 µM) |
| COc1c(N2C[C@@H](CF)[C@@H](N)C2)c(F)cc2c(=O)c(C(=O)O)cn(C3CC3)c12 [Comp. Ex. 1, 7-[3-(R)-Amino-4-(R)-fluoromethyl-1-pyrrolidinyl]-1-cyclopropyl-6-fluoro-1,4-dihydro-8-methoxy-4-oxoquinoline-3-carboxylic acid, reference compound] |  | 0.1 µg/mL (≈ 0.254 µM) | 0.2 µg/mL (≈ 0.508 µM) | 0.2 µg/mL (≈ 0.508 µM) | 0.025 µg/mL (≈ 0.0636 µM) | ≤ 0.003 µg/mL | 0.013 µg/mL (≈ 0.033 µM) | 0.1 µg/mL (≈ 0.254 µM) | 0.2 µg/mL (≈ 0.508 µM) | 0.1 µg/mL (≈ 0.254 µM) | 0.2 µg/mL (≈ 0.508 µM) | 0.013 µg/mL (≈ 0.033 µM) | 0.1 µg/mL (≈ 0.254 µM) | 0.78 µg/mL (≈ 1.98 µM) |
| COc1c(N2C[C@H](CF)[C@H](N)C2)c(F)cc2c(=O)c(C(=O)O)cn(C3CC3)c12 [Ex. 2, 7-[3-(S)-Amino-4-(S)-fluoromethyl-1-pyrrolidinyl]-1-cyclopropyl-6-fluoro-1,4-dihydro-8-methoxy-4-oxoquinoline-3-carboxylic acid] |  | 0.05 µg/mL (≈ 0.127 µM) | 0.1 µg/mL (≈ 0.254 µM) | 0.1 µg/mL (≈ 0.254 µM) | 0.013 µg/mL (≈ 0.033 µM) | ≤ 0.003 µg/mL | 0.006 µg/mL (≈ 0.0153 µM) | 0.05 µg/mL (≈ 0.127 µM) | 0.2 µg/mL (≈ 0.508 µM) | 0.05 µg/mL (≈ 0.127 µM) | 0.1 µg/mL (≈ 0.254 µM) | 0.013 µg/mL (≈ 0.033 µM) | 0.1 µg/mL (≈ 0.254 µM) | 0.39 µg/mL (≈ 0.991 µM) |
